Results reported in PubChem BioAssay AID1963967 (Molecular Pharmacology Branch, DTP, NCI, 2024).
pIC50: −log10 of the molar value.

Test system: 855422-203-R-J1-PDC spheroids with HUVEC/MSC, viability
Experiment: Anticancer human tumor 855422-203-R-J1-PDC patient-derived bladder carcinoma cell line growth inhibition [PI3K]
Details: for pIC50: curve of first compound; for viability, T/C: stronger effect = lower value
Text: Combinatorial screen of targeted agents with the PI3K inhibitors inavolisib, alpelisib, duvelisib, and copanlisib in multi-cell type tumor spheroids
A high-throughput screen of multi-cell type tumor spheroids was designed to identify active combinations of targeted small molecules and PI3K pathway inhibitors. Complex spheroids include a stromal component modeled by human endothelial cells (HUVEC) and fibroblasts modeled by human mesenchymal stem cells (MSCs). The concentration ranges selected for each drug and investigational agent were based upon clinically achievable concentrations if the clinical Cmax of the agent was known.
Compounds. The drugs and investigational agents: inavolisib (NSC800729), alpelisib (NSC765974), duvelisib (NSC772469), copanlisib (NSC816437), ipatasertib (NSC767898), afuresertib (NSC778305), talazoparib (NSC767125), sapanisertib (NSC764658), selumetinib (NSC741078), tovorafenib (DAY101, NSC766906), vemurafenib (NSC761431), ravoxertinib (NSC781343), sotorasib (NSC818433), MRTX1133 (NSC 836407), abemaciclib (NSC 768073), palbociclib (NSC758247), venetoclax (NSC 766270), SY5609 (NSC837396), enzalutamide (NSC755605), and darolutamide (NSC825331), were obtained from the National Cancer Institute (NCI) Developmental Therapeutics Program Chemical Repository. The FDA-approved anticancer drug set is available from the NCI Developmental Therapeutics Program. […] The stock solutions were prepared in dimethyl sulfoxide (DMSO, Sigma-Aldrich, St. Louis, MO, cat. D2650) at 800-fold the tested concentration and stored at -70 degrees C prior to their use. All drugs and investigational agents were tested over a range starting from a high concentration at or near the clinical Cmax and decreasing in half-log increments. If the clinical Cmax for an agent had not been determined, the highest concentration tested was 10 microM.
Cell Culture. All cells were maintained in an incubator at 37 degrees C and 5% CO2 with 95% humidity. The PDC lines were cultured according to standard operating procedures established by the NCI PDMR (https://pdmr.cancer.gov/sops/default.htm). All PDCs were thawed and cultured in Matrigel-coated flasks prepared with a working solution of 1X Ham's F-12 nutrient mix, without supplementation (Invitrogen, Waltham, MA, cat. 11765054), 100 U/mL penicillin-streptomycin (Invitrogen, cat. 15140122), and 2.5% Matrigel (Corning Inc., Corning, NY, cat. 354248) for the first three passages. The 354836-022-R-J1-PDC, 475296-252-R-J1-PDC, and 997726-040-R-J2-PDC lines were cultured in 6A media, which includes advanced DMEM/F-12 (Thermo Fisher Scientific, cat. 12634028), 10 mM HEPES (Thermo Fisher Scientific, cat. 15630080), 1X GlutaMAX supplement (Thermo Fisher Scientific, cat. 35050061), 0.1 mg/mL primocin (InvivoGen, San Diego, CA, cat. ant-pm-2), 10% defined fetal bovine serum, heat inactivated (HyClone Laboratories Inc., Logan, UT, cat. SH30070.03HI), 50% L-WRN conditioned media (ATCC, cat. CRL-3276), 1.25 mM N-Acetyl-L-cysteine (Sigma-Aldrich, cat. A9165), 10 mM nicotinamide (Sigma-Aldrich, cat. N0636), 1X B-27 supplement (Thermo Fisher Scientific, cat. 17504044), 1X N-2 supplement (Thermo Fisher Scientific, cat. 17502048), and 10 microM Y-27632 dihydrochloride (Tocris Bioscience, Bristol, United Kingdom, cat. 1254). The 624824-186-R-J2-PDC line was cultured in 6C/Colon 1B media, which includes all 6A media components plus 50 ng/mL human EGF recombinant protein (Thermo Fisher Scientific, cat. PHG0311). […]

[1] = second compound 0.00316 µM, first compound 0.00316 µM
[2] = second compound 0.00316 µM, first compound 0.01 µM
[3] = second compound 0.00316 µM, first compound 0.0316 µM
[4] = second compound 0.00316 µM, first compound 0.1 µM
[5] = second compound 0.01 µM, first compound 0.00316 µM
[6] = second compound 0.01 µM, first compound 0.01 µM
[7] = second compound 0.01 µM, first compound 0.0316 µM
[8] = second compound 0.01 µM, first compound 0.1 µM
[9] = second compound 0.0316 µM, first compound 0.00316 µM
[10] = second compound 0.0316 µM, first compound 0.01 µM
[11] = second compound 0.0316 µM, first compound 0.0316 µM
[12] = second compound 0.0316 µM, first compound 0.1 µM
[13] = second compound 0.1 µM, first compound 0.00316 µM
[14] = second compound 0.1 µM, first compound 0.01 µM
[15] = second compound 0.1 µM, first compound 0.0316 µM
[16] = second compound 0.1 µM, first compound 0.1 µM
[17] = second compound 0.316 µM, first compound 0.00316 µM
[18] = second compound 0.316 µM, first compound 0.01 µM
[19] = second compound 0.316 µM, first compound 0.0316 µM
[20] = second compound 0.316 µM, first compound 0.1 µM
[21] = second compound 1 µM, first compound 0.00316 µM
[22] = second compound 1 µM, first compound 0.01 µM
[23] = second compound 1 µM, first compound 0.0316 µM
[24] = second compound 1 µM, first compound 0.1 µM
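Also: agents incubated with spheroids for one week before read-out.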
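For viability, T/C in this document: 100% = DMSO vehicle-treated control wells.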

CCN1CCN(Cc2ccc(Nc3ncc(F)c(-c4cc(F)c5nc(C)n(C(C)C)c5c4)n3)nc2)CC1 + CC(Nc1ccc2c(c1)OCCn1cc(N3C(=O)OCC3C(F)F)nc1-2)C(N)=O
pIC50 (second compound 0.00316 µM): < 6.00 | pIC50 (second compound 0.01 µM): 6.10 | pIC50 (second compound 0.0316 µM): 6.56 | pIC50 (second compound 0.1 µM): 7.15 | pIC50 (second compound 0.316 µM): 8.37 | pIC50 (second compound 1 µM): > 8.50 | viability, T/C [1]: 111% | viability, T/C [2]: 74.3% | viability, T/C [3]: 103% | viability, T/C [4]: 74.1% | viability, T/C (second compound 0.00316 µM, first compound 0.316 µM): 66.2% | viability, T/C (second compound 0.00316 µM, first compound 1 µM): 56.5% | viability, T/C [5]: 102% | viability, T/C [6]: 80% | viability, T/C [7]: 89.7% | viability, T/C [8]: 76% | viability, T/C (second compound 0.01 µM, first compound 0.316 µM): 56.7% | viability, T/C (second compound 0.01 µM, first compound 1 µM): 48.3% | viability, T/C [9]: 69.1% | viability, T/C [10]: 78.3% | viability, T/C [11]: 78.3% | viability, T/C [12]: 61.7% | viability, T/C (second compound 0.0316 µM, first compound 0.316 µM): 49.7% | viability, T/C (second compound 0.0316 µM, first compound 1 µM): 35.4% | viability, T/C [13]: 66% | viability, T/C [14]: 66.2% | viability, T/C [15]: 59.1% | viability, T/C [16]: 46.3% | viability, T/C (second compound 0.1 µM, first compound 0.316 µM): 28.3% | viability, T/C (second compound 0.1 µM, first compound 1 µM): 21% | viability, T/C [17]: 46.5% | viability, T/C [18]: 52% | viability, T/C [19]: 43.1% | viability, T/C [20]: 24.4% | viability, T/C (second compound 0.316 µM, first compound 0.316 µM): 16.4% | viability, T/C (second compound 0.316 µM, first compound 1 µM): 16.1% | viability, T/C [21]: 33% | viability, T/C [22]: 40.3% | viability, T/C [23]: 21.9% | viability, T/C [24]: 14.2% | viability, T/C (second compound 1 µM, first compound 0.316 µM): 12.3% | viability, T/C (second compound 1 µM, first compound 1 µM): 13.1%

Cn1ncnc1[C@H]1c2n[nH]c(=O)c3cc(F)cc(c23)N[C@@H]1c1ccc(F)cc1 + CC(Nc1ccc2c(c1)OCCn1cc(N3C(=O)OCC3C(F)F)nc1-2)C(N)=O
pIC50 (second compound 0.00316 µM): < 7.00 | pIC50 (second compound 0.01 µM): < 7.00 | pIC50 (second compound 0.0316 µM): < 7.00 | pIC50 (second compound 0.1 µM): < 7.00 | pIC50 (second compound 0.316 µM): 7.95 | pIC50 (second compound 1 µM): > 9.50 | viability, T/C (second compound 0.00316 µM, first compound 0.000316 µM): 104% | viability, T/C (second compound 0.00316 µM, first compound 0.001 µM): 91.8% | viability, T/C [1]: 107% | viability, T/C [2]: 87.5% | viability, T/C [3]: 97.8% | viability, T/C [4]: 109% | viability, T/C (second compound 0.01 µM, first compound 0.000316 µM): 114% | viability, T/C (second compound 0.01 µM, first compound 0.001 µM): 92.5% | viability, T/C [5]: 97% | viability, T/C [6]: 99.4% | viability, T/C [7]: 100% | viability, T/C [8]: 104% | viability, T/C (second compound 0.0316 µM, first compound 0.000316 µM): 96.4% | viability, T/C (second compound 0.0316 µM, first compound 0.001 µM): 92.3% | viability, T/C [9]: 90.6% | viability, T/C [10]: 88.3% | viability, T/C [11]: 96% | viability, T/C [12]: 91.8% | viability, T/C (second compound 0.1 µM, first compound 0.000316 µM): 74.7% | viability, T/C (second compound 0.1 µM, first compound 0.001 µM): 72.9% | viability, T/C [13]: 55.5% | viability, T/C [14]: 69% | viability, T/C [15]: 78% | viability, T/C [16]: 80.8% | viability, T/C (second compound 0.316 µM, first compound 0.000316 µM): 56.4% | viability, T/C (second compound 0.316 µM, first compound 0.001 µM): 56% | viability, T/C [17]: 42.4% | viability, T/C [18]: 56.1% | viability, T/C [19]: 54.6% | viability, T/C [20]: 40.7% | viability, T/C (second compound 1 µM, first compound 0.000316 µM): 39.1% | viability, T/C (second compound 1 µM, first compound 0.001 µM): 36.7% | viability, T/C [21]: 35.7% | viability, T/C [22]: 35.6% | viability, T/C [23]: 33.5% | viability, T/C [24]: 27.2%
